Results taken from patent US8846914B2, “Compositions to effect neuronal growth” (Neuralstem, Inc., priority 2003, dated 2014).
Where two headings read alike, the source gives them in different places.

Legend:
[1] = system: human hippocampal stem cells differentiated for 3-4 weeks; assay: Neuroprotection against staurosporine-induced neurodegeneration; format: cell-based; settings: 125 nM staurosporine, twenty-four hour, 10 μM agent; for inhibition at 10 µM: Homo sapiens, 24 h
Description: FIG. 7A is a bar graph illustrating an example of a neuroprotection profile of the compounds against staurosporine-induced human hippocampal neurodegeneration as indicated by loss of neurons after twenty-four hour treatment with staurosporine by counting the remaining number of neurons, an increase in […], and an increase in intracellular levels of activated caspase-3/-7 detected by immunostaining. Addition of 125 nM staurosporine solution to human hippocampal stem cells differentiated for 3-4 weeks causes neuronal injury and death. Effect of the […] treatment to inhibit the staurosporine-induced neuronal loss and injury are shown. Each bar represents n=6 wells of the mean+/−the SEM from a single experiment.
Effect of the compound treatment to inhibit the staurosporine-induced neuronal loss and injury are shown. Each bar represents n=6 wells of the mean+/−the SEM from a single experiment.
Agents that promote proliferation and neurogenesis are further evaluated for their ability to inhibit neurodegeneration and apoptosis of the human hippocampal multipotent stem cell-derived neurons. Neurodegeneration may be induced in culture using any number of inducers as known by those skilled in the art. Examples of neurodegenerative inducers include: staurosporine, hypoxia reperfusion, free radicals, glutamate agonists, activated monocyte supernatant, beta amyloid peptides and corticosteroids to name a few. Some of the neurogenic agents inhibit loss of neurons, inhibit caspase activation, inhibit nuclear fragmentation or condensation, inhibit lactate dehydrogenase activity among other effects on neurodegeneration. Using staurosporine as an example, 125 nM of a staurosporine solution is added along with 10 μM of one of the listed neurogenic agents to human hippocampal stem cells differentiated for 3-4 weeks.
A number of neurogenic agents inhibit neuronal loss, caspase-3 activity and/or nuclear fragmentation compared to staurosporine vehicle control. These NSI small molecule agents are all effective at in vitro neurogenesis as determined by methods described. More particularly, human hippocampal stem cells differentiated for a period of 3-4 weeks are treated with an agent for 8-24 hrs in a neuronal maintenance media prior to treatment with an apoptotic or neurodegenerative insults such as staurosporin, TNFα and LPS-stimulated monocyte supernatant and the like. Following the treatment period, media is removed from the treated cells and the cells are fixed and stained. Staining may include Hoechst stain, MAP-2ab (AP-20) antibody staining, active caspase-3 antibody or other measures of neurodegeneration and apoptosis. Instrumentation such as a Molecular Devices fluorescent plate reader or a […] Array Scan II instrument and the like may be used to measure the degeneration and apoptosis.
FIGS. 7A, 7B and 7C illustrate an example of a neuroprotection profile of tested compounds against staurosporine-induced human hippocampal neurodegeneration measured by the remaining number of neurons, an increase in nuclear fragmentation, and an increase in intracellular levels of activated caspase-3/-7 detected by immunostaining, respectively. Human hippocampal stem cells that have been differentiated for 3-4 weeks undergo a twenty-four hour treatment with 125 nM staurosporine solution to cause neuronal injury and death. The effect of the compound treatment to inhibit the staurosporine-induced neuronal loss and injury is shown in each of FIGS. 7A, 7B and 7C. Each bar represents n=6 wells of the mean+/−the SEM from a single experiment.

[2] = system: caspase-3 activation induced by beta amyloid peptide 25-35; assay: Apoptosis induced by beta amyloid peptide 25-35 (caspase-3); format: cell-based, human; settings: FIG. 8
Description: (§1) FIG. 8 is a bar graph illustrating an example of a neuroprotection profile of the compounds against apoptosis, also known as programmed cell death, induced by beta amyloid peptide 25-35 as a model of Alzheimer's disease. Caspase-3 activation plays a central role in apoptosis and is an indicator of the occurrence of apoptosis if detected. […] Bars represent mean±SD from five wells.
Another assay used to determine the ability of a compound to provide neuroprotection is an apoptosis assay. Apoptosis is measured using the activity of an early matter of the programmed cell death pathway, caspase-3. Following 24 hours or 48 hours of apoptotic-induction in the presence and absence of compound treatment, the media is removed from the wells, and 50 μl cell lysis buffer is added to each well, 50 μl of 2× reaction buffer containing 10 mM DTT is then added to the lysate in each well. The contents of two wells are combined (for example: rows A/H, B/G, C/F, D/E), and 5 μl of substrate is added per well as recommended in the protocol for a caspase-3 fluorometric assay kit (Biovision) known in the art. The plate is incubated at 37° C. for 60 minutes. The contents of each well are then transferred to a fresh plate, and the fluorescence is determined with an […] using a fluorescent plate reader such as the Molecular Devices Gemini Fluorescent Plate Reader. Caspase-3 activity is expressed as μM of cleaved substrate per hour. Substrate concentration in μM is run for each plate to determine activity values for each treatment condition.
as §1, with “apoptosis” for “apoptosis, also known as programmed cell death,”, “25-35, part of a larger peptide found in plaques in Alzheimer's brains,” for “25-35”

hippocampal stem cells = assay: Differentiation into mature neurons (BrdU+/MAP-2ab+), three-week treatment; format: cell-based, human; settings: three weeks of continuous treatment; two-day BrdU pulse; FIG. 12
Description: FIG. 12 is a bar graph illustrating an example of differentiation into mature neurons as a percentage of control in response to a three-week treatment with the test compounds. Mitotic cells were labeled with BrdU. BrdU-positive cells were double-stained with the marker of mature neurons, anti-MAP-2 antibody. Total BrdU-immunostained cells and BrdU+/MAP-2ab+ co-stained cells indicating neurons were counted.
In FIG. 12 the exact number of dividing cells and neurons are determined to confirm that the increase in neurons is due to proliferation followed by differentiation. In FIG. 12, hippocampal stem cells are plated in a 96-well plate. The cells are then treated with one of the agents listed along with a two-day pulse of bromodeoxyuridine which is taken up into dividing cells thereby labeling mitotic cells with BrdU. After three weeks of continuous treatment with the listed agents, the cells are fixed and stained for BrdU immunoreactivity. BrdU-positive cells are double-stained with the marker of mature neurons, anti-MAP-2 to identify cells that have differentiated into mature neurons. The BrdU+/MAP-2ab+ co-stained cells which have differentiated into mature neurons are distinguished from control BrdU-immunostained cells which are proliferating stem cells.

[3] = read-out: Stauro % Inhib Nuclear Frag
[4] = read-out: Stauro % Inhib Caspase-3

SMILES | inhibition at 10 µM [1, 3] | Proliferation and differentiation into mature neurons (BrdU+/MAP-2ab+ cells) (hippocampal stem cells) | Stauro % Inhib Neuron Number [1] | further results
CS(=O)(=O)N(CC(=O)NCc1nc2ccccn2c1NCc1ccccc1)c1ccccc1 [NSI-185] | – | – | – | Stauro % Inhib Nuclear Frag [1]: N/N
COc1ccc(CCNc2ncc(C(N)=O)c(NC3CC3)n2)cc1OC [NSI-130] | 56 ± 17% | – | – | Inhibition of apoptosis induced by beta amyloid peptide 25-35 [2]: inhibit apoptosis
CS(=O)(=O)N1CCCCC1C(=O)NCc1ccc(Nc2c(C3CC3)nc3ccccn23)cc1 (centres unmarked) [NSI-127] | – | induce proliferation and then differentiation into neurons | – | –
O=C(COc1ccccc1)NCc1nc2ccccn2c1NCC1CCCO1 (centres unmarked) [NSI-183] | – | induce proliferation and then differentiation into neurons | – | –
O=C(NC1CCN(Cc2ccccc2)CC1)c1cccnc1N1CCNCC1 [NSI-143] | 123 ± 77% | – | – | –
NC(=O)c1cnc(NCc2ccc(Cl)cc2)nc1NCC1CCCCC1 [NSI-144] | – | induce proliferation and then differentiation into neurons | – | Inhibition of apoptosis induced by beta amyloid peptide 25-35 [2]: inhibit apoptosis
NC(=O)C1CCCN1C(=O)c1cccnc1NCC1CCCCC1 (centres unmarked) [NSI-158] | – | – | 22 ± 18% | inhibition at 10 µM [1, 4]: 48 ± 14%
CCCNc1ncc(C(N)=O)c(NC2CCCC2)n1 [NSI-137] | 87 ± 41% | – | – | –
CC(C)CCNc1ncccc1C(=O)N1CCN(Cc2ccccc2)CC1 [NSI-189] | – | – | N/N | –
O=C(NCc1nc2ccccn2c1NCC1CCCO1)Oc1ccccc1 (centres unmarked) [NSI-182] | 85 ± 45% | – | – | inhibition at 10 µM [1, 4]: 108 ± 21%; Inhibition of apoptosis induced by beta amyloid peptide 25-35 [2]: inhibit apoptosis
CCCCNc1c(C2CCN(C(=O)c3ccc(C#N)cc3)CC2)nc2ccccn12 [NSI-149] | – | – | 47 ± 15% | –
CCCCNc1c(C2CCN(C(=O)CN(CC(C)C)S(C)(=O)=O)CC2)nc2cnccn12 [NSI-106] | – | – | 16 ± 19% | –
CCN(CCNC(=O)c1cccnc1NCCC(C)C)Cc1cccnc1 [NSI-190] | 42 ± 30% | induce proliferation and then differentiation into neurons | 32 ± 1% | –
